Source: patent US20160237059A1, “HETEROCYCLIC SUBSTITUTED TRIFLUOROMETHYL PYRIMIDINONES AND THEIR USE” (BAYER PHARMA AKTIENGESELLSCHAFT, priority 2013, published 2016)
Where a name gives a salt, the structure may show the parent alone.

Assays:
human CCR2 = molecular target: T1, human CCR2 (Homo sapiens, UniProt P41597); test: Functional Ca2+ release test (B-1); type: cell-based; details: Chem-1 cell line transfected with human CCR2; 50% inhibition of the MCP-1 effect, MCP-1 at EC50 (about 5 nM); in some cases means of several determinations
T1 construct: host or cells: Chem-1 cell line
T1 sequence (P41597 1-360 isoform P41597-2): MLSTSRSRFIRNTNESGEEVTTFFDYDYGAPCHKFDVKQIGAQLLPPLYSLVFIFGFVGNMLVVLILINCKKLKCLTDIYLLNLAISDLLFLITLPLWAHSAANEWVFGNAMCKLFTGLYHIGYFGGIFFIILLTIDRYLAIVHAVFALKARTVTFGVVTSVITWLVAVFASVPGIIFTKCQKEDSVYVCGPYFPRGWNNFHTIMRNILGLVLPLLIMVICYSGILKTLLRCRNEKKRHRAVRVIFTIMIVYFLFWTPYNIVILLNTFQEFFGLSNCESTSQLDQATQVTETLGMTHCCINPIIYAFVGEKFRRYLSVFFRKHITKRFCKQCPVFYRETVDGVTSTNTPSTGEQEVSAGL
How it was run: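 Chem-1 cells expressing human CCR2, loaded with Fluo-4 for 60 min at 37° C, were preincubated 10 min with compound (10-point, 1:3.16 dilutions), then stimulated with MCP-1 at its predetermined EC50 (about 5 nM). Ca2+ release was monitored for 120 s. IC50 came from a 4-parameter Hill fit.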

murine CCR2 = molecular target: T2, murine CCR2 (Mus musculus, UniProt P51683); test: Functional β-arrestin recruiting test with human MCP-1 (B-2a); type: cell-based; details: U2OS β-arrestin cell line transfected with murine CCR2; agonist human MCP-1 at EC50 (about 3 nM); in some cases means of several determinations
T2 construct: host or cells: U2OS β-arrestin cell line
T2 sequence (P51683 whole entry): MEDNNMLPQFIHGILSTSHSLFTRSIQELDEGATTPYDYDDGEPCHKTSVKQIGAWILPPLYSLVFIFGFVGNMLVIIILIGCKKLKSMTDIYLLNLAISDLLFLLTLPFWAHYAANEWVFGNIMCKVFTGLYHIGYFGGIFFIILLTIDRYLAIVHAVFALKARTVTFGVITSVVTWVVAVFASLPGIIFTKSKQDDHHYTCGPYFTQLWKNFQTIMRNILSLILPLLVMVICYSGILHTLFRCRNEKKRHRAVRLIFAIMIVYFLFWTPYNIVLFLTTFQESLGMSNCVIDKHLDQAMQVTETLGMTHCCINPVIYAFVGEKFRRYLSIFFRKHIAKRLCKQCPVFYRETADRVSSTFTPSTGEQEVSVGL
Experimental: The antagonistic action of test substances on CCR2 was determined in a β-arrestin test. The PathHunter β-arrestin GPCR test system (DiscoveRx Corporation, Ltd.) is a cell-based functional method for detecting binding of β-arrestin to an activated receptor. The molecular basis is a […] complementation measured by the enzymatic conversion of a chemiluminescent substrate. The test cell used was a U2OS β-arrestin cell line transfected with murine CCR2 (93-0543C3, DiscoveRx Corporation, Ltd.).
The test substances were dissolved in dimethyl sulphoxide (DMSO) at a concentration of 10 mM and serially diluted with DMSO in steps of 1:3.16 for a 10-point dose/activity analysis. According to the desired test concentrations, the substances were pre-diluted in Tyrode with 2 mM CaCl2 and 0.05% BSA.
The cells, cultivated in MEM Eagle (supplemented with 10% FCS, 50 U/ml of penicillin, 50 μg/ml of streptomycin, 250 μg/ml of hygromycin and 500 μg/ml of geniticin), were sown at 2000 cells/25 μl in 384 well, μCLEAR/black cell culture plates from Greiner (#781092) and incubated at 37° C. for 24 h. The sowing medium consisted of Opti-MEM (supplemented with 1% FCS, 50 U/ml of penicillin and 50 μg/ml of streptomycin). The cells were pre-incubated for 10 min with 10 μl of the test substances diluted in buffer, and 10 μl of agonist solution [human MCP-1 (PeproTech, #300-04) in Tyrode with 0.05% BSA) were then added. The human MCP-1 was employed at the concentration which corresponds to the EC50 which had been determined in a preliminary test (usually about 3 nM). After 90 min of incubation at 37° C., the solution was removed, and recruitment of β-arrestin to CCR2 was detected with the aid of the PathHunter detection reagent (93-001, DiscoveRx Corporation, Ltd.) according to the instructions of the manufacturer. Luminescence was measured after an incubation time of 60 min using a proprietary luminescence imaging measuring instrument. The molar concentration of the test substance which caused 50% inhibition of the MCP-1 effect (IC50) was determined using a 4-parameter logistic function (Hill function).

SMILES | IC50 (human CCR2) [nM] | IC50 (murine CCR2) [nM]
O=c1[nH]c(Cn2cncn2)nc(C(F)(F)F)c1Cc1ccc(Cl)c(Cl)c1 [Example 173, 5-(3,4-dichlorobenzyl)-2-(1H-1,2,4-triazol-1-ylmethyl)-6-(trifluoromethyl)pyrimidin-4(3H)-one] | 260 | 980
COc1cnccc1-c1nc(C(F)(F)F)c(Cc2ccc(Cl)c(Cl)c2)c(=O)[nH]1 [Example 26] | 3.2 | 190
O=c1[nH]c(Cc2ccccn2)nc(C(F)(F)F)c1Cc1ccc(Cl)c(Cl)c1 [Example 94, 5-(3,4-dichlorobenzyl)-2-(pyridin-2-ylmethyl)-6-(trifluoromethyl)pyrimidin-4(3H)-one] | 90 | 420
O=c1[nH]c(Cc2ncn[nH]2)nc(C(F)(F)F)c1Cc1ccc(Cl)c(Cl)c1 [Example 92, 5-(3,4-dichlorobenzyl)-2-(1H-1,2,4-triazol-5-ylmethyl)-6-(trifluoromethyl)pyrimidin-4(3H)-one] | 57 | 220
O=c1[nH]c(-c2ccncc2)nc(C(F)(F)F)c1Cc1ccc(Cl)c(Cl)c1 [Example 28, 5-(3,4-dichlorobenzyl)-2-(pyridin-4-yl)-6-(trifluoromethyl)pyrimidin-4(3H)-one] | 49 | 1000
Cc1nc(Cc2nc(C(F)(F)F)c(Cc3ccc(Cl)c(Cl)c3)c(=O)[nH]2)cs1 [Example 174, 5-(3,4-dichlorobenzyl)-2-[(2-methyl-1,3-thiazol-4-yl)methyl]-6-(trifluoromethyl)pyrimidin-4(3H)-one] | 150 | 1100
O=C1NCCN1c1nc(C(F)(F)F)c(Cc2ccc(Cl)c(Cl)c2)c(=O)[nH]1 [Example 111, 5-(3,4-Dichlorobenzyl)-2-(2-oxoimidazolidin-1-yl)-6-(trifluoromethyl)pyrimidin-4(3H)-one] | 59 | 360
O=c1[nH]c(CN2CCOCC2)nc(C(F)(F)F)c1Cc1ccc(Cl)c(Cl)c1 [Example 261, 5-(3,4-Dichlorobenzyl)-2-(morpholin-4-ylmethyl)-6-(trifluoromethyl)pyrimidin-4(3H)-one] | 360 | 630
O=c1[nH]c(Cc2cccs2)nc(C(F)(F)F)c1Cc1ccc(Cl)c(Cl)c1 [Example 172] | 62 | 140
Cc1n[nH]c(Cc2nc(C(F)(F)F)c(Cc3ccc(Cl)c(Cl)c3)c(=O)[nH]2)n1 [Example 99, 5-(3,4-Dichlorobenzyl)-2-[(3-methyl-1H-1,2,4-triazol-5-yl)methyl]-6-(trifluoromethyl)pyrimidin-4(3H)-one] | 72 | 630
O=c1[nH]c(Cc2ccncc2)nc(C(F)(F)F)c1Cc1ccc(Cl)c(Cl)c1 [Example 93, 5-(3,4-dichlorobenzyl)-2-(pyridin-4-ylmethyl)-6-(trifluoromethyl)pyrimidin-4(3H)-one] | 83 | 370
Nc1oc(=O)sc1-c1nc(C(F)(F)F)c(Cc2ccc(Cl)c(Cl)c2)c(=O)[nH]1 [Example 46, 2-(5-Amino-2-oxo-1,3-oxathiol-4-yl)-5-(3,4-dichlorobenzyl)-6-(trifluoromethyl)pyrimidin-4(3H)-one] | 59 | 230
CC(C)c1nc(-c2nc(C(F)(F)F)c(Oc3ccc(Cl)c(Cl)c3)c(=O)[nH]2)no1 [Example 80, 5-(3,4-Dichlorophenoxy)-2-[5-(propan-2-yl)-1,2,4-oxadiazol-3-yl]-6-(trifluoromethyl)pyrimidin-4(3H)-one x N,N-diisopropylethylamine] | 32 | 160
Nc1[nH]ncc1-c1nc(C(F)(F)F)c(Cc2ccc(Cl)c(Cl)c2)c(=O)[nH]1 [Example 60, 2-(5-amino-1H-pyrazol-4-yl)-5-(3,4-dichlorobenzyl)-6-(trifluoromethyl)pyrimidin-4(3H)-one] | 91 | 180
Cc1noc(Cc2nc(C(F)(F)F)c(Cc3ccc(Cl)c(Cl)c3)c(=O)[nH]2)n1 [Example 91, 5-(3,4-Dichlorobenzyl)-2-[(3-methyl-1,2,4-oxadiazol-5-yl)methyl]-6-(trifluoromethyl)pyrimidin-4(3H)-one] | 22 | 270
Cc1cc(C)n(-c2nc(C(F)(F)F)c(Cc3ccc(Cl)c(Cl)c3)c(=O)[nH]2)n1 [Example 57, 5-(3,4-dichlorobenzyl)-2-(3,5-dimethyl-1H-pyrazol-1-yl)-6-(trifluoromethyl)pyrimidin-4(3H)-one] | 83 | 1300

The remaining lines, values ahead:

IC50 (human CCR2) [nM] | IC50 (murine CCR2) [nM] | SMILES
27 | 310 | Cn1ncc(-c2nc(C(F)(F)F)c(Oc3ccc(Cl)c(Cl)c3)c(=O)[nH]2)c1N [Example 68, 2-(5-amino-1-methyl-1H-pyrazol-4-yl)-5-(3,4-dichlorophenoxy)-6-(trifluoromethyl)pyrimidin-4(3H)-on]
51 | 1100 | O=c1[nH]c(-c2cc(O)ccn2)nc(C(F)(F)F)c1Oc1ccc(Cl)c(Cl)c1 [Example 32, 5-(3,4-dichlorophenoxy)-2-(4-hydroxypyridin-2-yl)-6-(trifluoromethyl)pyrimidin-4(3H)-one]
110 | 140 | Nc1[nH]ncc1-c1nc(C(F)(F)F)c(Oc2ccc(Cl)c(Cl)c2)c(=O)[nH]1 [Example 62, 2-(5-amino-1H-pyrazol-4-yl)-5-(3,4-dichlorophenoxy)-6-(trifluoromethyl)pyrimidin-4(3H)-one trifluoroacetate]
35 | 480 | O=c1[nH]c(-c2cccnc2)nc(C(F)(F)F)c1Cc1ccc(Cl)c(Cl)c1 [Example 27, 5-(3,4-dichlorobenzyl)-2-(pyridin-3-yl)-6-(trifluoromethyl)pyrimidin-4(3H)-one]
150 | 1400 | O=c1[nH]c(-c2cccc(O)n2)nc(C(F)(F)F)c1Oc1ccc(Cl)c(Cl)c1 [Example 31, 5-(3,4-dichlorophenoxy)-2-(6-hydroxypyridin-2-yl)-6-(trifluoromethyl)pyrimidin-4(3H)-one]
6.2 | 140 | O=c1[nH]c(-c2cccc(Cl)n2)nc(C(F)(F)F)c1Oc1ccc(Cl)c(C(F)(F)F)c1 [Example 36, 2-(6-chloropyridin-2-yl)-5-[4-chloro-3-(trifluoromethyl)phenoxy]-6-(trifluoromethyl)pyrimidin-4(3H)-one]
7.7 | 100 | O=c1[nH]c(-c2nc(C(F)(F)F)c(Oc3ccc(Cl)c(Cl)c3)c(=O)[nH]2)ns1 [Example 86, 5-(3,4-Dichlorophenoxy)-2-(5-oxo-4,5-dihydro-1,2,4-thiadiazol-3-yl)-6-(trifluoromethyl)pyrimidin-4(3H)-one]
50 | 370 | COc1cccnc1Nc1nc(C(F)(F)F)c(Oc2ccc(Cl)c(C(F)(F)F)c2)c(=O)[nH]1 [Example 103, 5-[4-chloro-3-(trifluoromethyl)phenoxy]-2-[(3-methoxypyridin-2-yl)amino]-6-(trifluoromethyl)pyrimidin-4(3H)-one]
75 | 100 | O=c1[nH]c(-c2ncccc2Cl)nc(C(F)(F)F)c1Oc1cccc(Cl)c1 [Example 12, 5-(3-chlorophenoxy)-2-(3-chloropyridin-2-yl)-6-(trifluoromethyl)pyrimidin-4(3H)-one]
56 | 120 | O=c1[nH]c(-c2ncccc2Cl)nc(C(F)(F)F)c1Oc1ccc(F)c(F)c1 [Example 13, 2-(3-chloropyridin-2-yl)-5-(3,4-difluorophenoxy)-6-(trifluoromethyl)pyrimidin-4(3H)-one]
